The target of the assay is Xanthine dehydrogenase/oxidase (Homo sapiens, UniProt P47989). In words: Inhibition of xanthine oxidase.
Sequence of Xanthine dehydrogenase/oxidase (P47989 whole entry): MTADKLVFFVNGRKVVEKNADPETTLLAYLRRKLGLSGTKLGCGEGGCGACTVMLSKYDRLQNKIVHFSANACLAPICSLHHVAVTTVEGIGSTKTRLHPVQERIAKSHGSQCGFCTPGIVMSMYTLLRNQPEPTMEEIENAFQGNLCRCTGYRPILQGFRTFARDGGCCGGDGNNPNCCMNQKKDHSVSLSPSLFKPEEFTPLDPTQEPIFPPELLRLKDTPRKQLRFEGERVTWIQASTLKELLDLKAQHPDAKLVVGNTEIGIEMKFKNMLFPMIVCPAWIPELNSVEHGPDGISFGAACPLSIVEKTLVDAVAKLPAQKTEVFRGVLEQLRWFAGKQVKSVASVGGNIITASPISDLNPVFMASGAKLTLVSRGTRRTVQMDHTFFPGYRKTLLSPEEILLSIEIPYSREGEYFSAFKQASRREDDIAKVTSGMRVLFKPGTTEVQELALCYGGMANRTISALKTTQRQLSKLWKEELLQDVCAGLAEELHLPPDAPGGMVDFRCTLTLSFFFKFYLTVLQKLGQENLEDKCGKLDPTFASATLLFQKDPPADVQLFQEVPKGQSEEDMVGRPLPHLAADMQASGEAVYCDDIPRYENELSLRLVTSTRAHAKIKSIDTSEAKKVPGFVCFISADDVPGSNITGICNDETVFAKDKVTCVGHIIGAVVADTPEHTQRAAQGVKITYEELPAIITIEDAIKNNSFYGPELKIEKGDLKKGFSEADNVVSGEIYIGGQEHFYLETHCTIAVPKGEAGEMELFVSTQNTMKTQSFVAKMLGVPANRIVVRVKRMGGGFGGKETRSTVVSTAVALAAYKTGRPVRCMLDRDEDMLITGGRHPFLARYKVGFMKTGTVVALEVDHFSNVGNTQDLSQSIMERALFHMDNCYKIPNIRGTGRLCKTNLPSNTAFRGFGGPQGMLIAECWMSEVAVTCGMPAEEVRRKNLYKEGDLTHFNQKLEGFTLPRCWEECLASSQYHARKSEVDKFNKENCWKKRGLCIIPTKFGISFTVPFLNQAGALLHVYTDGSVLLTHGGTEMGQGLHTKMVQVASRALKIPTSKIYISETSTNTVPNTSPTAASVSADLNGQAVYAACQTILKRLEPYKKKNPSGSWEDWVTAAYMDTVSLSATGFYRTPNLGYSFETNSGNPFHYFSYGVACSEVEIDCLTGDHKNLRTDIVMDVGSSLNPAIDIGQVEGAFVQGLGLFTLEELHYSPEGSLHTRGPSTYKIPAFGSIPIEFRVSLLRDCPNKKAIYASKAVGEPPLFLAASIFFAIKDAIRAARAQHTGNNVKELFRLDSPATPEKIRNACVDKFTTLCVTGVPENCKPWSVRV

Usually IC50 stands for the concentration that gives 50% inhibition. A lower IC50 goes with higher potency. Turning to `CCC(C)C(=O)C1C(=O)[C@@](C)(CC=C(C)C)C(=O)[C@@]2(C[C@H]3[C@H](CC[C@@]3(C)O)[C@](C)(O)C2)C1=O` (stereo partly specified), the midpoint of inhibition, the IC50, lay at 42.1 µM.

For the origin of these results see BindingDB's records for doi:10.1021/np8001145 (Kaohsiung Medical University, 2008).
